Test results published in ChEMBL document CHEMBL1130039, “1,2-Diarylimidazoles as potent, cyclooxygenase-2 selective, and orally active antiinflammatory agents” (J Med Chem, 1997).
Active and inactive are the calls of the source. The calls are words filed in the database; no cut-off is given here.

Columns and labels:
[1] = target: T1, Prostaglandin G/H synthase 1 (Homo sapiens, UniProt P23219)
Rattus norvegicus [2] = organism: Rattus norvegicus; assay: animal or person; assay type: functional
Rattus norvegicus [3] = organism: Rattus norvegicus; assay: animal or person; assay type: functional; remark: listed apart in the source
[4] = rat, in vivo, po, 200 mg/kg
Rattus norvegicus [5] = organism: Rattus norvegicus; assay: animal or person; assay type: functional; remark: listed apart in the source
Rattus norvegicus [6] = organism: Rattus norvegicus; assay: animal or person; assay type: functional; remark: listed apart in the source
[7] = target: T1, Prostaglandin G/H synthase 1; remark: listed apart in the source
[8] = target: T2, Prostaglandin G/H synthase 2 (Homo sapiens) (UniProt P35354)
T2 sequence (whole entry): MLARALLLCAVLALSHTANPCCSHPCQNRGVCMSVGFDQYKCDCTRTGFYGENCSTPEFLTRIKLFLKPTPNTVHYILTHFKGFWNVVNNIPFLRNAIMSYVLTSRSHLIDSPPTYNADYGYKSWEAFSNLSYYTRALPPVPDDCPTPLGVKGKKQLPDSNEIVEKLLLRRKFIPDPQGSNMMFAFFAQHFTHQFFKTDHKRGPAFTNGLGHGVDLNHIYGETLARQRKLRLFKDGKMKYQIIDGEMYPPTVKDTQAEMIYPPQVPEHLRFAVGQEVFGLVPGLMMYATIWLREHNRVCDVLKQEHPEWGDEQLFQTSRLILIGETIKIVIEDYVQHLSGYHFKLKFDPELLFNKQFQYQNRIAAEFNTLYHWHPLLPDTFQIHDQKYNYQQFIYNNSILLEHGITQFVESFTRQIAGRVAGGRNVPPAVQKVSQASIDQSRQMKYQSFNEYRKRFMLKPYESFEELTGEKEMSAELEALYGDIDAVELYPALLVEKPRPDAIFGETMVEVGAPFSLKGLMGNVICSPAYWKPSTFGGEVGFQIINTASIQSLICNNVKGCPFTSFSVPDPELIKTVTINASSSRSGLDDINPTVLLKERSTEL

Rattus norvegicus [9] = organism: Rattus norvegicus; assay: animal or person; assay type: functional; remark: listed apart in the source
Rattus norvegicus [10] = organism: Rattus norvegicus; assay: animal or person; assay type: functional; remark: listed apart in the source
physchem = settings: octanol/water
Rattus norvegicus [11] = organism: Rattus norvegicus; assay: animal or person; assay type: functional; remark: listed apart in the source
Rattus norvegicus [12] = organism: Rattus norvegicus; assay: animal or person; assay type: functional; remark: listed apart in the source
[13] = mouse, in vivo, po, 200 mg/kg
[14] = mouse, in vivo, po, 20 mg/kg
Rattus norvegicus [15] = organism: Rattus norvegicus; assay: animal or person; settings: read-out: Inhibition

T1 sequence (P23219 whole entry): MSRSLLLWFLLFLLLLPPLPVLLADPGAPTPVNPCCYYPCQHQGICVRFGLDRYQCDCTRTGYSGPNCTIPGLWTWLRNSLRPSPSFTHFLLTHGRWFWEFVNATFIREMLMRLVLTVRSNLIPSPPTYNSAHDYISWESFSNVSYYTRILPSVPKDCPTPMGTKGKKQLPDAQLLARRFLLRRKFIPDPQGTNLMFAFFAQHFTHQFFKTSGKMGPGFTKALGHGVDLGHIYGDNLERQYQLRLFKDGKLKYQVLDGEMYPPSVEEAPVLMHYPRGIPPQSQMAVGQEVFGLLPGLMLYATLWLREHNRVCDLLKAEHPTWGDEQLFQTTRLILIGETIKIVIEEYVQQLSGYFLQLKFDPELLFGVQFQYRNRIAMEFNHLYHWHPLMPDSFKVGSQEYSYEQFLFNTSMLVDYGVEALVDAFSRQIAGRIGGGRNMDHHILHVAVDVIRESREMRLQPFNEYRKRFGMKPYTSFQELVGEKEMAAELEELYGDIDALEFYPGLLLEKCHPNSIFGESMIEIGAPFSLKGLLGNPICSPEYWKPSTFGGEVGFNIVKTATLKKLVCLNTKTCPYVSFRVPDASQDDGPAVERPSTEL

IC50 [1]	Structure (SMILES)	inhibition in vivo at 2 mg/kg (Rattus norvegicus [2])	further results
> 100 µM	CS(=O)(=O)c1ccc(-n2cc(COc3ccc(Cl)cc3)nc2-c2ccc(Cl)cc2)cc1	15%	–
–	Cc1ccccc1-c1nc(C(F)(F)F)cn1-c1ccc(S(C)(=O)=O)cc1	95%	ED50 (Rattus norvegicus [3]): 43 mg/kg; Toxicity [4]: 0; ED50 (Rattus norvegicus [5]): 17.8 mg/kg
–	COc1ccc2c(c1)c(CC(=O)O)c(C)n2C(=O)c1ccc(Cl)cc1 [INDOMETHACIN]	–	ED50 (Rattus norvegicus [6]): 60 mg/kg
–	COc1c(F)cc(-c2nc(C(F)(F)F)cn2-c2ccc(S(N)(=O)=O)cc2)cc1F	100%	–
> 100 µM	CN(C)c1cc(-c2nc(C(F)(F)F)cn2-c2ccc(S(C)(=O)=O)cc2)ccc1Cl	69%	–
> 100 µM	Cc1cc(Cl)cc(-c2nc(C(F)(F)F)cn2-c2ccc(S(N)(=O)=O)cc2)c1	61%	–
> 100 µM	COc1c(Br)cc(-c2nc(C(F)(F)F)cn2-c2ccc(S(C)(=O)=O)cc2)cc1Br	0%	–
1.9 µM	NS(=O)(=O)c1ccc(-n2cc(C(F)(F)F)nc2-c2ccc(F)cc2)cc1	98%	–
> 100 µM	CN(C)c1c(Cl)cc(-c2nc(C(F)(F)F)cn2-c2ccc(S(C)(=O)=O)cc2)cc1Cl	25%	–
–	COc1cc(-c2nc(C(F)(F)F)cn2-c2ccc(S(C)(=O)=O)cc2)ccc1Cl	0%	–
–	CS(=O)(=O)c1ccc(-n2cc(C(F)(F)F)nc2-c2cc(Cl)cc(Cl)c2)cc1	5%	–
> 100 µM	CS(=O)(=O)c1ccc(-n2cc(CF)nc2-c2ccc(Cl)cc2)cc1	36%	–
> 100 µM	CS(=O)(=O)c1ccc(-n2cc(CN)nc2-c2ccc(Cl)cc2)cc1	–	–
> 100 µM	CSCc1cn(-c2ccc(S(C)(=O)=O)cc2)c(-c2ccc(Cl)cc2)n1	10%	–
–	COc1ccc(-c2nc(C(F)(F)F)cn2-c2ccc(S(N)(=O)=O)cc2)cc1F	89%	ED50 (Rattus norvegicus [3]): 36 mg/kg; ED50 (Rattus norvegicus [6]): 19 mg/kg
> 100 µM	COCc1cccc(-c2nc(C(F)(F)F)cn2-c2ccc(S(C)(=O)=O)cc2)c1	–	–
–	Cc1ccc(-c2nc(C(F)(F)F)cn2-c2ccc(S(N)(=O)=O)cc2)cc1	63%	–
> 100 µM	CS(=O)(=O)c1ccc(-n2ccnc2-c2ccccc2)cc1	–	–
> 100 µM	CS(=O)(=O)c1ccc(-n2cc(-c3ccccc3)nc2-c2ccc(Cl)cc2)cc1	6%	–

IC50 [1]	Structure (SMILES)	inhibition in vivo at 2 mg/kg (Rattus norvegicus [2])	further results
–	Cc1cccc(-c2nc(C(F)(F)F)cn2-c2ccc(S(N)(=O)=O)cc2)c1	95%	–
–	CS(=O)(=O)c1ccc(-c2[nH]cnc2-c2ccc(F)cc2)cc1	–	NA [7]: inactive; NA [8]: inactive
–	Cc1cc(F)cc(-c2nc(C(F)(F)F)cn2-c2ccc(S(C)(=O)=O)cc2)c1	87%	–
> 100 µM	COc1c(Cl)cc(-c2nc(C(F)(F)F)cn2-c2ccc(S(C)(=O)=O)cc2)cc1Cl	25%	–
–	CS(=O)(=O)c1ccc(-n2cc(C(F)(F)F)nc2-c2ccc3c(c2)OCO3)cc1	78%	–
–	Cc1ccc(-c2nc(C(F)(F)F)cn2-c2ccc(S(C)(=O)=O)cc2)cc1Cl	10%	ED50 (Rattus norvegicus [3]): 55 mg/kg; ED50 (Rattus norvegicus [9]): 20.9 mg/kg
–	COc1cccc(-c2nc(C(F)(F)F)cn2-c2ccc(S(C)(=O)=O)cc2)c1	45%	–
–	CSc1ccc(-c2nc(C(F)(F)F)cn2-c2ccc(S(C)(=O)=O)cc2)cc1	79%	–
–	COc1c(F)cc(-c2nc(C(F)(F)F)cn2-c2ccc(S(C)(=O)=O)cc2)cc1F	89%	ED50 (Rattus norvegicus [10]): 26 mg/kg
–	CS(=O)(=O)c1ccc(-n2cc(C(F)(F)F)nc2-c2ccc(Cl)cc2)cc1	98%	ED50 (Rattus norvegicus [5]): 9 mg/kg; logP (physchem): 3.3
–	Cc1cc(-c2nc(C(F)(F)F)cn2-c2ccc(S(C)(=O)=O)cc2)ccc1F	90%	–
91 µM	COc1c(C)cc(-c2nc(C(F)(F)F)cn2-c2ccc(S(C)(=O)=O)cc2)cc1C	29%	–
–	CS(=O)(=O)c1ccc(-n2cc(C(F)(F)F)nc2-c2cccc(Br)c2)cc1	84%	–
> 100 µM	Cc1ccc(F)cc1-c1nc(C(F)(F)F)cn1-c1ccc(S(C)(=O)=O)cc1	–	–
–	CS(=O)(=O)c1ccc(-n2cc(C(F)(F)F)nc2-c2ccccc2F)cc1	97%	–
–	Cc1cc(-c2nc(C(F)(F)F)cn2-c2ccc(S(C)(=O)=O)cc2)ccc1Cl	64%	–
–	CN(C)c1ccc(-c2nc(C(F)(F)F)cn2-c2ccc(S(C)(=O)=O)cc2)cc1Cl	87%	–
–	COc1cc(-c2nc(C(F)(F)F)cn2-c2ccc(S(N)(=O)=O)cc2)ccc1Cl	100%	–
67 µM	CS(=O)(=O)c1ccc(-n2cc(C(F)(F)F)nc2-c2cc(F)cc(C(F)(F)F)c2)cc1	–	–

IC50 [1]	Structure (SMILES)	inhibition in vivo at 2 mg/kg (Rattus norvegicus [2])	further results
–	Cc1ccc(-c2nc(C(F)(F)F)cn2-c2ccc(S(C)(=O)=O)cc2)cc1C	15%	–
–	CSc1ccc(-c2nc(C(F)(F)F)cn2-c2ccc(S(C)(=O)=O)cc2)cc1Cl	0%	–
–	COc1ccc(-c2nc(C(F)(F)F)cn2-c2ccc(S(C)(=O)=O)cc2)cc1Cl	92%	ED50 (Rattus norvegicus [11]): 35 mg/kg; ED50 (Rattus norvegicus [12]): 29 mg/kg
–	CS(=O)(=O)c1ccc(-n2cc(C(F)(F)F)nc2-c2cccc(C(F)(F)F)c2)cc1	42%	–
–	CS(=O)(=O)c1ccc(-n2cc(C(F)(F)F)nc2-c2ccccc2)cc1	98%	ED50 (Rattus norvegicus [3]): 56 mg/kg; ED50 (Rattus norvegicus [5]): 20.8 mg/kg
–	Cc1cccc(-c2nc(C(F)(F)F)cn2-c2ccc(S(C)(=O)=O)cc2)c1	77%	ED50 (Rattus norvegicus [3]): 46 mg/kg; ED50 (Rattus norvegicus [5]): 23 mg/kg; Toxicity [13]: 0; Toxicity [14]: 0
–	NS(=O)(=O)c1ccc(-n2cc(C(F)(F)F)nc2-c2ccc(F)c(F)c2)cc1	83%	–
–	CS(=O)(=O)c1ccc(-n2cc(C#N)nc2-c2ccc(Cl)cc2)cc1	69%	–
> 100 µM	CS(=O)(=O)c1ccc(-n2cc(CSc3ccc(Cl)cc3)nc2-c2ccc(Cl)cc2)cc1	0%	–
–	Cc1ccc(-c2nc(C(F)(F)F)cn2-c2ccc(S(C)(=O)=O)cc2)cc1F	47%	–
> 100 µM	Cc1cn(-c2ccc(S(C)(=O)=O)cc2)c(-c2ccc(Cl)cc2)n1	–	inhibition in vivo at 2 mg/kg (Rattus norvegicus [15]): 53%
–	CS(=O)(=O)c1ccc(-n2cc(C(F)(F)F)nc2-c2ccc(F)c(F)c2)cc1	87%	–
4.5 µM	NS(=O)(=O)c1ccc(-n2cc(C(F)(F)F)nc2-c2cccc(Br)c2)cc1	–	–
–	Cc1cc(F)cc(-c2nc(C(F)(F)F)cn2-c2ccc(S(N)(=O)=O)cc2)c1	80%	–
> 100 µM	CS(=O)(=O)Cc1cn(-c2ccc(S(C)(=O)=O)cc2)c(-c2ccc(Cl)cc2)n1	–	–
–	CS(=O)(=O)c1ccc(-n2cc(C(F)(F)F)nc2-c2cccc(F)c2)cc1	88%	–
> 100 µM	Cc1cccc(Cl)c1-c1nc(C(F)(F)F)cn1-c1ccc(S(C)(=O)=O)cc1	–	–
> 100 µM	Cc1cn(-c2ccc(F)cc2)c(-c2ccc(S(C)(=O)=O)cc2)n1	–	–
